Measurements: patent US9789096B2, “Methods and compositions for selective and targeted cancer therapy” (Board of Regents of the University of Texas System, priority 2013, dated 2017)
Like-named read-outs stand apart in the source and are kept apart here.

Tests used:
Assay type in all cases: cell-based, human
H2009 = assay: Cell viability dose-response, H2009; conditions: Homo sapiens; for AC50: NCI-H2009, Table 8; for IC50: NCI-H2009
Protocol: (§1) FIG. 6A. […] Cell viability is plotted vs. compound concentration. Compound was added to cells plated at 15% confluence in 96-well plates in RPMI-1640 media supplemented with 5% Fetal Bovine Serum and 2 mM L-Glutamine. After 4 days of incubation, ATP levels were measured using Cell Titer Glo (Promega). Data are presented as the average of 2 replicates ±SEM.
(§2) Selectivity may be measured by the half maximal inhibitory concentration (IC50), which, as used herein, is a measure of the effectiveness of a compound in killing cells. This quantitative measure indicates how much of a particular compound is needed to kill a particular cell population by half (e.g., as indicated by the amount of ATP). […] The IC50 can be determined by constructing a dose-response curve. The lower the IC50, the higher the potency, and the greater the difference between IC50 values for different cell lines (e.g., sensitive lines vs. insensitive lines, and sensitive lines vs. normal lines) the greater the selectivity. […]
(§3) With this information, we synthesized and tested a series of small molecules derived in conception from the oxalamide and chromone scaffold including N-acyl ureas, as shown in Tables 6-8. Each compound was tested in a 12-point dose-response study starting at 50 micromolar and decreasing in 3-fold increments to sub-nanomolar concentrations, in duplicate. Additionally, one or more additional cell line was tested in the same way.

H2122 = assay: Cell viability dose-response, H2122; conditions: Homo sapiens; for AC50: NCI-H2122, Table 8, 12-point dose-response starting at 50 micromolar
Summary of the method: (§4)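 Cells plated at 15% confluence in RPMI-1640 with 5% FBS and 2 mM L-glutamine, treated with compound in a 12-point, 3-fold dilution series from 50 micromolar, in duplicate. ATP measured by Cell Titer Glo after 4 days; IC50 taken from the dose-response curve.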

HCC44 = assay: Cell viability dose-response, HCC44; conditions: Homo sapiens; for AC50: HCC44, Table 8, 12-point dose-response starting at 50 micromolar
Protocol: as §1, §2, §3

H1819 = assay: Cell viability dose-response, H1819; conditions: Homo sapiens
Summary of the method: as §4

[1] = 12-point dose-response starting at 50 micromolar
[2] = 12-point dose-response starting at 50 micromolar, 3-fold increments, in duplicate, read-out: toxicity data, H2009
[3] = NCI-H2122, 12-point dose-response starting at 50 micromolar, 3-fold increments, in duplicate, read-out: toxicity data, H2122
[4] = NCI-H2122, Table 9, competitor, read-out: IC50 to H2122 cells
[5] = HCC44, 12-point dose-response starting at 50 micromolar, 3-fold increments, in duplicate, read-out: toxicity data, HCC44
[6] = Tables 3 and 4, read-out: IC50 (uM) vs indicated non-small cell lung cancer cell line H2009
[7] = NCI-H2122, Tables 3 and 4, read-out: IC50 (uM) vs indicated non-small cell lung cancer cell line H2122
[8] = HCC44, Tables 3 and 4, read-out: IC50 (uM) vs indicated non-small cell lung cancer cell line HCC44
[9] = NCI-H1819, Tables 3 and 4, read-out: IC50 (uM) vs indicated non-small cell lung cancer cell line H1819
[10] = NCI-H1819, 12-point dose-response starting at 50 micromolar, 3-fold increments, in duplicate, read-out: toxicity data, H1819

COc1ccc(-c2coc3cc(OCc4cnn(-c5ccccc5)c4)ccc3c2=O)c(C)c1 [SW208767-1]
AC50 (H2009; [1]): 49.5 µM
AC50 (H2122): 2.07 µM
AC50 (HCC44): 4.06 µM

COc1ccc(Oc2coc3cc(OCc4cnn(-c5ccccc5)c4)ccc3c2=O)cc1 [SW 208596-1]
AC50 (H2009; [1]): 16.5 µM
AC50 (H2122): 0.22 µM
AC50 (HCC44): 16.5 µM

O=c1c(Oc2ccccc2F)coc2cc(OCc3cn(-c4ccccc4)nn3)ccc12 [SW208232]
AC50 (H2009; [1]): 49.5 µM
AC50 (H2122): ≥ 49.5 µM
AC50 (HCC44): 49.5 µM

O=C(NCCc1ccc(O)cc1)NC(=O)c1ccc(Nc2ccccc2)cc1 [SW208562-1-A]
IC50 (H2009; [2]): 0.01 µM
IC50 (H2122; [3]): 0.09 µM
IC50 (H2122; [4]): 0.0737 µM
IC50 (HCC44; [5]): 12.2 µM

O=C(Nc1nc2ccccc2s1)c1ccc(C(=O)c2ccccc2)cc1 [SW208652-1]
IC50 (H2009; [6]): 2.42 µM
IC50 (H2122; [4]): 0.00644 µM
IC50 (H2122; [7]): 0.009 µM
IC50 (HCC44; [8]): 0.025 µM

O=C(NCCc1ccc(O)cc1)NC(=O)c1ccc(Oc2ccccc2)cc1 [SW208523-1-A]
IC50 (H2009; [2]): 0.02 µM
IC50 (H2122; [3]): 0.02 µM
IC50 (HCC44; [5]): 0.02 µM

COc1ccc(CCNC(=O)c2ccc(Cl)cc2)cc1 [SW208463-1-A]
IC50 (H2009; [2]): ≥ 49.5 µM
IC50 (H2122; [3]): ≥ 49.5 µM
IC50 (HCC44; [5]): ≥ 49.5 µM

COc1ccc(CCNC(=O)NC(=O)c2ccc(C(=O)NC3CCCC3)cc2)cc1 [SW208454-1-A]
IC50 (H2009; [2]): ≥ 49.5 µM
IC50 (H2122; [3]): 0.939 µM
IC50 (HCC44; [5]): ≥ 49.5 µM

COc1ccc(CCNC(=O)NC(=O)c2ccc(C(=O)Nc3cccc(OC)c3)cc2)cc1 [SW208410-1-A]
IC50 (H2009; [2]): 1.37 µM
IC50 (H2122; [3]): ≥ 49.5 µM
IC50 (HCC44; [5]): ≥ 49.5 µM

COc1ccc(CCNC(=O)NC(=O)c2ccc(C(=O)c3ccccc3)cc2)cc1 [SW208222-1-A]
IC50 (H2009; [2]): 48 µM
IC50 (H2122; [3]): 0.105 µM
IC50 (H2122; [4]): 0.142 µM
IC50 (HCC44; [5]): 0.241 µM

O=C(Nc1nc2ccc(OCCCCBr)cc2s1)c1ccc(C(=O)c2ccccc2)cc1 [SW 208236]
IC50 (H2009; [6]): 49.5 µM
IC50 (H2122; [7]): ≥ 49.5 µM
IC50 (HCC44; [8]): 49.5 µM

COc1ccc(CCNC(=O)NC(=O)c2ccc(O)cc2)cc1 [SW208565-1-A]
IC50 (H2009; [2]): 5.9 µM
IC50 (H2122; [3]): 18 µM
IC50 (HCC44; [5]): 2.75 µM

O=C(Nc1ncc(-c2ccccc2)s1)c1ccc(C(=O)c2ccccc2)cc1 [SW209017]
IC50 (H2009; [6]): 4.95 µM
IC50 (H2122; [7]): 5.76 µM
IC50 (HCC44; [8]): 49.5 µM

COc1ccc(CCNC(=O)NC(=O)c2cccc(C)c2)cc1 [SW208399-1-A]
IC50 (H2009; [2]): 16.5 µM
IC50 (H2122; [3]): ≥ 49.5 µM
IC50 (HCC44; [5]): ≥ 49.5 µM

O=c1c(-c2cccc(F)c2)coc2cc(OCc3cnn(-c4ccccc4)c3)ccc12 [SW208735]
AC50 (H2122): 0.55 µM
AC50 (HCC44): 49.5 µM

O=c1c(-c2ccccc2F)coc2cc(OCc3cnn(-c4ccccc4)c3)ccc12 [SW208734]
AC50 (H2122): ≥ 49.5 µM
AC50 (HCC44): 49.5 µM

Nc1nc2cc([N+](=O)[O-])ccc2s1 [SW053525]
IC50 (H1819; [9]): 182 µM
IC50 (H2009; [6]): 1530 µM

O=c1c(Oc2ccccc2Br)coc2cc(OCc3cnn(-c4ccccc4)c3)ccc12 [SW 208585-1]
AC50 (H2009; [1]): 35 µM
AC50 (H2122): 0.1 µM

C#CCOc1ccc2nc(NC(=O)c3ccc(C4(C(F)(F)F)N=N4)cc3)sc2c1 [SW208700-1]
IC50 (H2122; [7]): 7.92 µM
IC50 (HCC44; [8]): 49.5 µM

O=c1c(-c2ccc(F)cc2)coc2cc(OCc3cnn(-c4ccccc4)c3)ccc12 [SW208737]
AC50 (H2122): 0.27 µM
AC50 (HCC44): 49.5 µM

O=C(Nc1nc2c(s1)CCCC2)c1ccc(C(=O)c2ccccc2)cc1 [SW208741-1]
IC50 (H2122; [7]): 0.22 µM
IC50 (HCC44; [8]): 3.64 µM

COc1ccc(CCNC(=O)C(=O)Nc2cc(OC)ccc2Cl)cc1 [SW206870-1-A]
IC50 (H1819; [10]): ≥ 49.5 µM
IC50 (H2122; [3]): ≥ 49.5 µM

COc1cccc(CCNC(=O)C(=O)Nc2ccc(Cl)cc2C)c1 [SW206965-1]
IC50 (H1819; [10]): ≥ 49.5 µM
IC50 (H2122; [3]): ≥ 49.5 µM

COc1ccc(CCNC(=O)C(=O)Nc2cc(F)c(F)c(Br)c2)cc1 [SW206876-1-A]
IC50 (H1819; [10]): ≥ 49.5 µM
IC50 (H2122; [3]): ≥ 49.5 µM

COc1ccc(CCNC(=O)C(=O)Nc2cc(C)ccc2Cl)cc1 [SW206867-1-A]
IC50 (H1819; [10]): ≥ 49.5 µM
IC50 (H2122; [3]): ≥ 49.5 µM

COc1ccc(CCNC(=O)NC(=O)c2ccccc2)cc1 [SW208142-1-A]
IC50 (H1819; [10]): ≥ 49.5 µM
IC50 (H2122; [3]): 1.09 µM

COc1ccc(CCNC(=O)c2nc3ccccc3o2)cc1 [SW208125-1-A]
IC50 (H1819; [10]): ≥ 49.5 µM
IC50 (H2122; [3]): 30.4 µM

COc1ccc(CCNC(=O)C(=O)Nc2cc(F)ccc2C)cc1 [SW206879-1-A]
IC50 (H1819; [10]): ≥ 49.5 µM
IC50 (H2122; [3]): ≥ 49.5 µM

O=C(Nc1nc2ccc(O)cc2s1)c1ccc(C(=O)c2ccccc2)cc1 [SW202864-1]
IC50 (H2122; [4]): 0.256 µM
IC50 (H2122; [7]): 30.8 µM
IC50 (HCC44; [8]): 38.6 µM

C#CCOc1ccc2nc(NC(=O)c3ccc(C(=O)c4ccc(OC)cc4)cc3)sc2c1 [SW208187]
IC50 (H1819; [9]): 0.697 µM
IC50 (H2122; [7]): 0.288 µM

O=c1c(Cc2ccc(C(F)(F)F)cc2)coc2cc(OCc3cnn(-c4ccccc4)c3)ccc12 [SW209185-1]
AC50 (H1819; NCI-H1819, Table 8, 12-point dose-response starting at 50 micromolar): 28.6 µM
AC50 (H2122): 0.085 µM

COc1ccc(CCNC(=O)C(=O)NC2CCCC2)cc1 [SW208033-1-A]
IC50 (H1819; [10]): ≥ 49.5 µM
IC50 (H2122; [3]): ≥ 49.5 µM

COc1ccc(CCNC(=O)C(=O)Nc2cnccc2C)cc1 [SW208134-1-A]
IC50 (H1819; [10]): ≥ 49.5 µM
IC50 (H2122; [3]): ≥ 49.5 µM

COc1cccc(-c2coc3cc(OCc4cnn(-c5ccccc5)c4)ccc3c2=O)c1 [SW208733]
AC50 (H2122): 0.74 µM
AC50 (HCC44): 49.5 µM

COc1ccc(CCN(C)C(=O)C(=O)Nc2ccc(Cl)cc2)cc1 [SW208153-1-A]
IC50 (H1819; [10]): ≥ 49.5 µM
IC50 (H2122; [3]): 10.5 µM

COc1ccc(CCNC(=O)C(=O)Nc2ccc(F)cc2Cl)cc1 [SW206863-1-a]
IC50 (H1819; [10]): ≥ 49.5 µM
IC50 (H2122; [3]): ≥ 49.5 µM

COc1ccc(CCNC(=O)C(=O)Nc2cc(Cl)cc(C(F)(F)F)c2)cc1 [SW206869-1-A]
IC50 (H1819; [10]): ≥ 49.5 µM
IC50 (H2122; [3]): ≥ 49.5 µM

COc1ccc(CCNC(=O)C(=O)Nc2ccc(Cl)nc2)cc1 [SW208127-1-A]
IC50 (H1819; [10]): ≥ 49.5 µM
IC50 (H2122; [3]): 0.438 µM

COc1ccc(CCNC(=O)c2cc(OC)c3ccccc3n2)cc1 [SW208053-1-A]
IC50 (H1819; [10]): 32 µM
IC50 (H2122; [3]): 45.9 µM

COc1ccc(CCCNC(=O)NCc2ccc(Cl)cc2)cc1 [SW208121-1-A]
IC50 (H1819; [10]): 5.75 µM
IC50 (H2122; [3]): 3.67 µM

O=c1c(-c2ccccn2)coc2cc(OCc3cnn(-c4ccccc4)c3)ccc12 [SW208732]
AC50 (H2122): ≥ 49.5 µM
AC50 (HCC44): 49.5 µM

COc1ccc(CCNC(=O)c2ccc3ccc(Br)cc3n2)cc1 [SW208057-1-A]
IC50 (H1819; [10]): 34.9 µM
IC50 (H2122; [3]): ≥ 49.5 µM

O=C(NCc1ccccc1)NCc1ccccc1 [SW208062-1-A]
IC50 (H1819; NCI-H1819, read-out: toxicity data, H1819): ≥ 49.5 µM
IC50 (H2122; [3]): ≥ 49.5 µM

COc1ccc(CCNC(=O)C(=O)Nc2ccncc2)cc1 [SW208135-1-A]
IC50 (H1819; [10]): ≥ 49.5 µM
IC50 (H2122; [3]): ≥ 49.5 µM
